Measurements: the supplement of paper PMC10307832

Tests used:
Assay in all cases: relative viability (nuclei count vs DMSO), 5 days (fraction); higher = more cells survive
Irinotecan + Lapatinib = compound: CCc1c2c(nc3ccc(OC(=O)N4CCC(N5CCCCC5)CC4)cc13)-c1cc3c(c(=O)n1C2)COC(=O)[C@]3(O)CC [Irinotecan] + CS(=O)(=O)CCNCc1ccc(-c2ccc3ncnc(Nc4ccc(OCc5cccc(F)c5)c(Cl)c4)c3c2)o1 [Lapatinib] (partner 2 µM)
Method in brief: (§1)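 Relative viability is defined as nuclei in treated wells over nuclei in vehicle wells. Duplicate plates were run and medians reported. Lung cancer cell lines in 1536-well plates were dosed by pin tool one day after seeding, with one drug or with a fixed anchor-drug dose plus five library-drug doses (not always all listed) in √10 steps, and nuclei were counted after 5 days.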

RU-SKI 43 + Crizotinib = compound: CC[C@@H](C)CNCC(=O)N1CCC2=C([C@@H]1COC3=CC=CC(=C3)C)C=CS2 [RU-SKI 43] + C[C@@H](Oc1cc(-c2cnn(C3CCNCC3)c2)cnc1N)c1c(Cl)ccc(F)c1Cl [Crizotinib] (partner 1 µM)
Method in brief: as §1

MK-8033 + Tozasertib = compound: Cn1cc(-c2cnc3ccc4ccc(CS(=O)(=O)NCc5ccccn5)cc4c(=O)c3c2)cn1 [MK-8033] + Cc1cc(Nc2cc(N3CCN(C)CC3)nc(Sc3ccc(NC(=O)C4CC4)cc3)n2)n[nH]1 [Tozasertib] (partner 0.1 µM)
Method in brief: as §1

MK-8033 + Linsitinib = compound: Cn1cc(-c2cnc3ccc4ccc(CS(=O)(=O)NCc5ccccn5)cc4c(=O)c3c2)cn1 [MK-8033] + C[C@]1(O)C[C@@H](c2nc(-c3ccc4ccc(-c5ccccc5)nc4c3)c3c(N)nccn32)C1 [Linsitinib] (partner 1 µM)
Method in brief: as §1

| Cell Line | relative viability (Irinotecan + Lapatinib; first compound 0.6325 µM) | relative viability (Irinotecan + Lapatinib; first compound 2 µM) | relative viability (Irinotecan + Lapatinib; first compound 6.325 µM) | relative viability (Irinotecan + Lapatinib; first compound 20 µM) | relative viability (RU-SKI 43 + Crizotinib; first compound 0.1 µM) | relative viability (RU-SKI 43 + Crizotinib; first compound 0.3162 µM) | relative viability (RU-SKI 43 + Crizotinib; first compound 1 µM) | relative viability (RU-SKI 43 + Crizotinib; first compound 3.162 µM) | relative viability (RU-SKI 43 + Crizotinib; first compound 10 µM) | relative viability (MK-8033 + Tozasertib; first compound 0.02 µM) | relative viability (MK-8033 + Tozasertib; first compound 0.06325 µM) | relative viability (MK-8033 + Tozasertib; first compound 0.2 µM) | relative viability (MK-8033 + Tozasertib; first compound 0.6325 µM) | relative viability (MK-8033 + Tozasertib; first compound 2 µM) | relative viability (MK-8033 + Linsitinib; first compound 0.02 µM) | relative viability (MK-8033 + Linsitinib; first compound 0.06325 µM) | relative viability (MK-8033 + Linsitinib; first compound 0.2 µM) | relative viability (MK-8033 + Linsitinib; first compound 0.6325 µM) | relative viability (MK-8033 + Linsitinib; first compound 2 µM) |
| --- | --- | --- | --- | --- | --- | --- | --- | --- | --- | --- | --- | --- | --- | --- | --- | --- | --- | --- | --- |
| BEN | 0.542 | 0.418 | 0.244 | 0.338 | 0.933 | 1.14 | 1.03 | 0.865 | 0.758 | 0.544 | 0.491 | 0.461 | 0.492 | 0.545 | 0.906 | 0.859 | 0.765 | 0.844 | 0.853 |
| CAL-12T | 0.71 | 0.543 | 0.475 | 0.442 | 0.494 | 0.747 | 0.652 | 0.896 | 0.653 | 0.317 | 0.29 | 0.28 | 0.311 | 0.266 | 0.738 | 0.861 | 0.72 | 0.903 | 0.771 |
| COR-L23 | 0.383 | 0.378 | 0.177 | 0.121 | 0.752 | 0.598 | 0.736 | 0.667 | 0.492 | 0.198 | 0.187 | 0.164 | 0.164 | 0.117 | 0.88 | 0.849 | 0.824 | 0.993 | 0.902 |
| COR-L 105 | 0.358 | 0.431 | 0.452 | 0.272 | 0.682 | 0.697 | 0.858 | 0.712 | 0.438 | 0.311 | 0.377 | 0.338 | 0.349 | 0.345 | 0.868 | 1.04 | 0.838 | 0.902 | 0.915 |
| EKVX | 0.222 | 0.256 | 0.16 | 0.17 | 0.902 | 1.01 | 0.926 | 0.987 | 0.713 | 0.482 | 0.262 | 0.466 | 0.288 | 0.313 | 1 | 1.01 | 0.856 | 1.05 | 0.994 |
| EMC-BAC-2 | 0.774 | 0.578 | 0.27 | 0.246 | 0.789 | 0.793 | 0.811 | 0.828 | 0.751 | 0.295 | 0.254 | 0.281 | 0.265 | 0.298 | 0.774 | 0.771 | 0.744 | 0.893 | 0.791 |
| EPLC-272H | 0.509 | 0.758 | 0.211 | 0.267 | 0.981 | 0.964 | 1.01 |  | 0.812 | 0.27 | 0.214 | 0.279 | 0.32 | 0.152 | 1.17 |  | 1.01 | 1.07 | 1.17 |
| H3255 | 0.206 | 0.214 | 0.224 | 0.23 | 0.858 | 0.885 | 0.976 | 0.791 | 0.874 | 0.581 | 0.501 | 0.554 | 0.609 | 0.602 | 1.03 | 0.815 | 0.903 | 0.991 | 0.826 |
| HARA | 0.749 | 0.339 | 0.17 | 0.118 | 1.16 | 0.971 | 1.08 | 1.18 | 0.975 | 0.104 | 0.0979 | 0.111 | 0.136 | 0.112 | 0.779 | 0.78 | 0.893 | 1.03 | 0.897 |
| HCC-15 | 0.463 | 0.336 | 0.17 | 0.155 | 0.806 | 1.01 | 0.962 | 0.873 | 0.807 | 0.498 | 0.3 | 0.35 | 0.427 | 0.352 | 0.763 | 0.851 | 0.83 | 0.911 | 0.801 |
| HCC-44 | 0.96 | 0.73 | 0.273 | 0.382 | 0.778 | 0.785 | 0.846 | 0.796 | 0.806 | 0.886 | 0.837 | 0.771 | 0.729 | 0.813 | 0.615 | 0.661 | 0.617 | 0.654 | 0.688 |
| HCC-78 | 0.551 | 0.543 | 0.206 | 0.218 | 0.334 | 0.305 | 0.35 | 0.353 | 0.302 | 0.482 |  | 0.414 | 1.83 | 0.404 | 0.474 | 0.501 | 0.474 |  | 0.581 |
| HCC-366 | 0.418 | 0.126 | 0.0457 | 0.0686 | 0.454 | 0.392 | 0.548 | 0.486 | 0.27 | 0.114 | 0.131 | 0.0893 | 0.102 | 0.0504 | 0.675 | 0.565 | 0.619 | 0.587 | 0.643 |
| HCC-827 | 0.178 | 0.222 | 0.133 | 0.16 | 0.956 | 1.01 | 0.987 | 0.916 | 0.602 | 0.412 |  | 0.402 | 0.4 | 0.401 | 0.957 |  | 0.947 | 0.968 | 0.948 |
| HOP-62 | 0.471 | 0.258 | 0.143 | 0.217 | 0.7 | 1.01 | 1.09 | 0.829 | 0.977 | 0.406 | 0.339 | 0.359 | 0.352 | 0.344 | 0.62 | 0.99 | 0.898 | 0.895 | 1.01 |
| LC-2-ad | 0.416 | 0.291 | 0.172 | 0.132 | 0.443 | 0.392 | 0.535 |  | 0.43 | 0.441 | 0.385 |  | 0.512 | 0.409 | 0.82 | 0.75 | 0.796 | 0.822 | 0.795 |
